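In this assay, cells in 96-well plates receive the compound at five concentrations for 48 hours. Endpoints are linearly interpolated between the surrounding concentrations. GI50: concentration for 50% inhibition of growth. TGI is the concentration that stops growth completely.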
How the values were obtained:
Assay in all cases: NCI anticancer screen, dose series, 48 h
[1] = system: OVCAR-3 ovarian
[2] = system: HCC-2998 colon
[3] = system: SF-295 CNS
[4] = system: SNB-75 CNS
[5] = system: CAKI-1 renal
[6] = system: RPMI-8226 leukemia
[7] = system: SN12C renal
[8] = system: UACC-257 melanoma
[9] = system: M14 melanoma
[10] = system: NCI/ADR-RES ovarian
[11] = system: PC-3 prostate
[12] = system: A549 NSCLC
[13] = system: TK-10 renal
[14] = system: SK-MEL-2 melanoma
[15] = system: HL-60(TB) leukemia
[16] = system: NCI-H460 lung
[17] = system: T-47D breast
[18] = system: SK-MEL-5 melanoma
[19] = system: RXF 393 renal
[20] = system: COLO 205 colon
[21] = system: IGROV1 ovarian
[22] = system: NCI-H522 lung
[23] = system: MOLT-4 leukemia
[24] = system: SW-620 colon
[25] = system: SF-539 CNS
[26] = system: OVCAR-4 ovarian
[27] = system: NCI-H226 lung
[28] = system: 786-0 renal
[29] = system: CCRF-CEM leukemia
[30] = system: EKVX NSCLC
[31] = system: SF-268 CNS
[32] = system: OVCAR-5 ovarian
[33] = system: K-562 leukemia
[34] = system: MCF7 breast
[35] = system: HCT-116 colon
[36] = system: LOX IMVI melanoma
[37] = system: ACHN renal
[38] = system: HS 578T breast
[39] = system: MDA-MB-435
[40] = system: NCI-H23 lung
[41] = system: UO-31 renal
[42] = system: A498 renal
[43] = system: HOP-92 NSCLC
[44] = system: DU-145 prostate
[45] = system: SNB-19 CNS
[46] = system: MDA-MB-231 breast
[47] = system: SR leukemia
[48] = system: SK-MEL-28 melanoma
[49] = system: BT-549 breast
[50] = system: KM12 colon
[51] = system: SK-OV-3 ovarian
[52] = system: HOP-62 NSCLC
[53] = system: UACC-62 melanoma
[54] = system: OVCAR-8 ovarian

Nc1nc(/C=C\c2ccc([N+](=O)[O-])s2)nc(N2CCOCC2)n1
GI50 [1]: 15.2 µM | TGI [1]: 37.5 µM | GI50 [2]: 5.18 µM | TGI [2]: 16.7 µM | GI50 [3]: 36.4 µM | TGI [3]: > 100 µM | GI50 [4]: 13.8 µM | TGI [4]: 34.2 µM | GI50 [5]: 19.7 µM | TGI [5]: 39.6 µM | GI50 [6]: 3.45 µM | TGI [6]: 17.6 µM | GI50 [7]: 13 µM | TGI [7]: 26.4 µM | GI50 [8]: 10.7 µM | TGI [8]: 23.1 µM | GI50 [9]: 10.5 µM | TGI [9]: 24.7 µM | GI50 [10]: 12.7 µM | TGI [10]: 33.3 µM | GI50 [11]: 11.5 µM | TGI [11]: 28.1 µM | GI50 [12]: 16.1 µM | TGI [12]: 32.6 µM | GI50 [13]: 22 µM | TGI [13]: 46.9 µM | GI50 [14]: 17.4 µM | TGI [14]: 44.7 µM | GI50 [15]: 6.45 µM | TGI [15]: 26.2 µM | GI50 [16]: 13.7 µM | TGI [16]: 26.6 µM | GI50 [17]: 8.98 µM | TGI [17]: 28.1 µM | GI50 [18]: 5.84 µM | TGI [18]: 19.1 µM | GI50 [19]: 11.1 µM | TGI [19]: 26.2 µM | GI50 [20]: 2.08 µM | TGI [20]: 5.09 µM | GI50 [21]: 4.93 µM | TGI [21]: 19.8 µM | GI50 [22]: 4.57 µM | TGI [22]: 17.1 µM | GI50 [23]: 11.1 µM | TGI [23]: 42.1 µM | GI50 [24]: 13.9 µM | TGI [24]: > 100 µM | GI50 [25]: 19.7 µM | TGI [25]: 46.3 µM | GI50 [26]: 2.65 µM | TGI [26]: 15.3 µM | GI50 [27]: 16 µM | TGI [27]: 46.2 µM | GI50 [28]: 15.8 µM | TGI [28]: 30.1 µM | GI50 [29]: 3.33 µM | TGI [29]: 16.9 µM | GI50 [30]: 17.8 µM | TGI [30]: 56.8 µM | GI50 [31]: 8.24 µM | TGI [31]: 22 µM | GI50 [32]: 22.2 µM | TGI [32]: 37.2 µM | GI50 [33]: 7.71 µM | TGI [33]: 24.7 µM | GI50 [34]: 5.77 µM | TGI [34]: 19.5 µM | GI50 [35]: 2.98 µM | TGI [35]: 10.9 µM | GI50 [36]: 2.12 µM | TGI [36]: 9.52 µM | GI50 [37]: 5.06 µM | TGI [37]: 17.7 µM | GI50 [38]: 25.6 µM | TGI [38]: > 100 µM | GI50 [39]: 8.19 µM | TGI [39]: 22.8 µM | GI50 [40]: 10.2 µM | TGI [40]: 22.7 µM | GI50 [41]: 14.9 µM | TGI [41]: 30.1 µM | GI50 [42]: 9 µM | TGI [42]: 22.7 µM | GI50 [43]: 13.2 µM | TGI [43]: 28.1 µM | GI50 [44]: 11 µM | TGI [44]: 26.7 µM | GI50 [45]: 23.3 µM | TGI [45]: 69.5 µM | GI50 [46]: 5.55 µM | TGI [46]: 19.1 µM | GI50 [47]: 5.14 µM | TGI [47]: 20.3 µM | GI50 [48]: 17.9 µM | TGI [48]: 38.2 µM | GI50 [49]: 9.29 µM | TGI [49]: 26.9 µM | GI50 [50]: 3.5 µM | TGI [50]: 16.5 µM | GI50 [51]: 16.3 µM | TGI [51]: 43 µM | GI50 [52]: 17.8 µM | TGI [52]: 32.9 µM | GI50 [53]: 7.08 µM | TGI [53]: 19.7 µM | GI50 [54]: 13.7 µM | TGI [54]: > 100 µM

Reference: PubChem BioAssay (NCI)
